Experiments:
Type in all cases: cell-based
Botrytis cinerea = assay: Fungicidal activity screen in amended agar, 96 well plates, Botrytis cinerea; conditions: fungal growth vs DMSO control, Medium N agar, 5,000 spores/ml, 20, 2, 0.2 and 0.02 ppm, 18° C., assessed after 3 to 4 days, read-out: Botrytis EC50 ranking
Method: (§1) Compounds were screened in 96 well plates with 10 compounds per plate. Each compound was screened using agar amended to 20, 2, 0.2 and 0.02 ppm of the test material. Proline at 50 and 10 ppm and 0.2% DMSO were used respectively as positive and negative controls. Each test concentration and standard were tested twice on a plate.
(§2) Compounds were screened against the following three fungal pathogens—Botrytis cinerea, Alternaria alternata and Zymoseptoria tritici. The agar used in the test varied depending on the pathogen with Medium N used for B. cinerea and A. alternata and 1% potato dextrose agar for Z. tritici. For each pathogen sufficient spores were added to the appropriate agar to give 1,000 spores/ml agar of A. alternata, 5,000 spores/ml agar of B. cinerea and 10,000 spores/ml agar of Z. tritici.
(§3) A ×10 stock solution in 2% DMSO was produced for each dose i.e. 200, 20, 2 and 0.2 ppm, and 10 μl of this added to the appropriate wells on the plate. An equivalent amount of 2% DMSO and Proline stock at 500 and 100 ppm were added for the controls. To each well 90 μl of the appropriate agar spore suspension was added to give the final well concentrations outlined in the first paragraph.
(§4) Plates were incubated at room temperature (18° C.) and assessed after • a) 3 to 4 days A. alternata and B. cinerea • b) 7 days for Z. tritici
(§5) The amount of fungal growth in each well was compared to the DMSO controls and scored according to the following key • 0—no growth (100% control) • 1—growth reduced by 75% compared to DMSO control (25% growth) • 2—growth reduced by 50% compared to DMSO control (50% growth) • 3—growth reduced by 25% compared to DMSO control growth (75% growth) • 4—no reduction in growth compared to DMSO control growth (100% growth)
(§6) Those numbers were then used to give an EC50. The ranking in the table is: • A) EC50<20 ppm, B) EC50≥20ppm

Alternaria alternata = assay: Fungicidal activity screen in amended agar, 96 well plates, Alternaria alternata; conditions: fungal growth vs DMSO control, Medium N agar, 1,000 spores/ml, 20, 2, 0.2 and 0.02 ppm, 18° C., assessed after 3 to 4 days, read-out: Alternaria EC50 ranking
Method: as §1, §2, §3, §4, §5, §6

Zymoseptoria tritici = assay: Fungicidal activity screen in amended agar, 96 well plates, Zymoseptoria tritici; conditions: 168 h, fungal growth vs DMSO control, 1% potato dextrose agar, 10,000 spores/ml, 20, 2, 0.2 and 0.02 ppm, 18° C., assessed after 7 days, read-out: Zymoseptoria EC50 ranking
Method: as §1, §2, §3, §4, §5, §6

Cc1ncnc(-n2cnc3cc(F)cc(F)c32)c1-c1ccc(F)cc1Cl [Example 1, 1-(5-(2-Chloro-4-fluorophenyl)-6-methylpyrimidin-4-yl)-5,7-difluoro-1H-benzo[d]imidazole]
EC50 (Botrytis cinerea): < 20 µg/mL
EC50 (Alternaria alternata): < 20 µg/mL
EC50 (Zymoseptoria tritici): < 20 µg/mL

COc1ccc(-c2c(C)ncnc2-n2cnc3cc(F)cc(F)c32)c(Cl)c1 [Example 2]
EC50 (Botrytis cinerea): < 20 µg/mL
EC50 (Alternaria alternata): < 20 µg/mL
EC50 (Zymoseptoria tritici): < 20 µg/mL

Cc1ncnc(-n2cnc3cc(F)cc(F)c32)c1-c1ccccc1Cl [Example 3]
EC50 (Botrytis cinerea): < 20 µg/mL
EC50 (Alternaria alternata): < 20 µg/mL
EC50 (Zymoseptoria tritici): < 20 µg/mL

Cc1ccnc(-n2cnc3cc(F)cc(F)c32)c1-c1ccc(F)cc1Cl [Example 4]
EC50 (Botrytis cinerea): < 20 µg/mL
EC50 (Alternaria alternata): < 20 µg/mL
EC50 (Zymoseptoria tritici): < 20 µg/mL

Fc1ccc(-c2c(-n3cnc4cc(F)cc(F)c43)ccnc2Cl)c(Cl)c1 [Example 5]
EC50 (Botrytis cinerea): < 20 µg/mL
EC50 (Alternaria alternata): < 20 µg/mL
EC50 (Zymoseptoria tritici): < 20 µg/mL

Cc1cccc(-n2cnc3cc(F)cc(F)c32)c1-c1ccc(F)cc1Cl [Example 6]
EC50 (Botrytis cinerea): < 20 µg/mL
EC50 (Alternaria alternata): < 20 µg/mL
EC50 (Zymoseptoria tritici): < 20 µg/mL

COc1cc(F)c(-c2c(C)cccc2-n2cnc3cc(F)cc(F)c32)c(F)c1 [Example 7]
EC50 (Botrytis cinerea): < 20 µg/mL
EC50 (Alternaria alternata): < 20 µg/mL
EC50 (Zymoseptoria tritici): < 20 µg/mL

Cc1cccc(-n2cnc3ccccc32)c1-c1ccc(F)cc1Cl [Example 8]
EC50 (Botrytis cinerea): < 20 µg/mL
EC50 (Alternaria alternata): < 20 µg/mL
EC50 (Zymoseptoria tritici): < 20 µg/mL

Cc1cccc(-n2cnc3cc(Cl)ccc32)c1-c1ccc(F)cc1Cl [Example 9]
EC50 (Botrytis cinerea): < 20 µg/mL
EC50 (Alternaria alternata): < 20 µg/mL
EC50 (Zymoseptoria tritici): < 20 µg/mL

Cc1ccc2c(c1)ncn2-c1cccc(C)c1-c1ccc(F)cc1Cl [Example 10]
EC50 (Botrytis cinerea): < 20 µg/mL
EC50 (Alternaria alternata): < 20 µg/mL
EC50 (Zymoseptoria tritici): < 20 µg/mL

COc1ccc(-c2c(C)ncnc2-n2cnc3cc(Cl)cc(F)c32)c(Cl)c1 [Example 11]
EC50 (Botrytis cinerea): < 20 µg/mL
EC50 (Alternaria alternata): < 20 µg/mL
EC50 (Zymoseptoria tritici): < 20 µg/mL

Cc1ncnc(-n2cnc3cc(Cl)cc(F)c32)c1-c1ccc(F)cc1Cl [Example 12]
EC50 (Botrytis cinerea): < 20 µg/mL
EC50 (Alternaria alternata): < 20 µg/mL
EC50 (Zymoseptoria tritici): < 20 µg/mL

COc1ccc(-c2c(-n3cnc4cc(Cl)cc(F)c43)ccnc2Cl)c(Cl)c1 [Example 13]
EC50 (Botrytis cinerea): < 20 µg/mL
EC50 (Alternaria alternata): < 20 µg/mL
EC50 (Zymoseptoria tritici): < 20 µg/mL

Fc1ccc(-c2c(-n3cnc4cc(Cl)cc(F)c43)ccnc2Cl)c(Cl)c1 [Example 14]
EC50 (Botrytis cinerea): < 20 µg/mL
EC50 (Alternaria alternata): < 20 µg/mL
EC50 (Zymoseptoria tritici): < 20 µg/mL

C#CCOc1ccc2c(c1)ncn2-c1ccnc(Cl)c1-c1ccc(F)cc1Cl [Example 15]
EC50 (Botrytis cinerea): < 20 µg/mL
EC50 (Alternaria alternata): < 20 µg/mL
EC50 (Zymoseptoria tritici): < 20 µg/mL

Cc1ccnc(-n2cnc3cc(Cl)cc(F)c32)c1-c1ccc(F)cc1Cl [Example 16]
EC50 (Botrytis cinerea): < 20 µg/mL
EC50 (Alternaria alternata): < 20 µg/mL
EC50 (Zymoseptoria tritici): < 20 µg/mL

C#CCOc1ccc2c(c1)ncn2-c1nccc(C)c1-c1ccc(F)cc1Cl [Example 17]
EC50 (Botrytis cinerea): < 20 µg/mL
EC50 (Alternaria alternata): < 20 µg/mL
EC50 (Zymoseptoria tritici): < 20 µg/mL

COc1ccc(-c2c(-n3cnc4cc(Br)cc(F)c43)ccnc2Cl)c(Cl)c1 [Example 18]
EC50 (Botrytis cinerea): < 20 µg/mL
EC50 (Alternaria alternata): < 20 µg/mL
EC50 (Zymoseptoria tritici): < 20 µg/mL

COc1cc(F)c(-c2c(C)ncnc2-n2cnc3cc(Cl)cc(F)c32)c(F)c1 [Example 19]
EC50 (Botrytis cinerea): < 20 µg/mL
EC50 (Alternaria alternata): < 20 µg/mL
EC50 (Zymoseptoria tritici): < 20 µg/mL

COc1ccc(-c2c(-n3nnc4cc(Cl)cc(F)c43)ccnc2Cl)c(Cl)c1 [Example 20, 5-Chloro-1-(2-chloro-3-(2-chloro-4-methoxyphenyl)pyridin-4-yl)-7-fluoro-1H-benzo[d][1,2,3]triazole]
EC50 (Botrytis cinerea): < 20 µg/mL
EC50 (Alternaria alternata): < 20 µg/mL
EC50 (Zymoseptoria tritici): < 20 µg/mL

Cc1ncnc(-n2nnc3cc(Cl)cc(F)c32)c1-c1ccc(F)cc1Cl [Example 21]
EC50 (Botrytis cinerea): < 20 µg/mL
EC50 (Alternaria alternata): ≥ 20 µg/mL
EC50 (Zymoseptoria tritici): < 20 µg/mL

COc1ccc(-c2c(C)ncnc2-n2nnc3cc(Cl)cc(F)c32)c(Cl)c1 [Example 22]
EC50 (Botrytis cinerea): < 20 µg/mL
EC50 (Alternaria alternata): ≥ 20 µg/mL
EC50 (Zymoseptoria tritici): < 20 µg/mL

Cc1ccnc(-n2nnc3cc(Cl)cc(F)c32)c1-c1ccc(F)cc1Cl [Example 23]
EC50 (Botrytis cinerea): < 20 µg/mL
EC50 (Alternaria alternata): < 20 µg/mL
EC50 (Zymoseptoria tritici): < 20 µg/mL

COc1ccc(-c2c(C)ccnc2-n2nnc3cc(Cl)cc(F)c32)c(Cl)c1 [Example 24]
EC50 (Botrytis cinerea): < 20 µg/mL
EC50 (Alternaria alternata): ≥ 20 µg/mL
EC50 (Zymoseptoria tritici): < 20 µg/mL

Fc1ccc(-c2c(-n3nnc4cc(Cl)cc(F)c43)ccnc2Cl)c(Cl)c1 [Example 25]
EC50 (Botrytis cinerea): < 20 µg/mL
EC50 (Alternaria alternata): < 20 µg/mL
EC50 (Zymoseptoria tritici): < 20 µg/mL

COc1ccc(-c2c(-n3nnc4cc(Br)cc(F)c43)ccnc2Cl)c(Cl)c1 [Example 26]
EC50 (Botrytis cinerea): < 20 µg/mL
EC50 (Alternaria alternata): ≥ 20 µg/mL
EC50 (Zymoseptoria tritici): ≥ 20 µg/mL

Fc1ccc(-c2c(-n3cnc4cc(F)ccc43)cnnc2Cl)c(Cl)c1 [Example 27]
EC50 (Botrytis cinerea): < 20 µg/mL
EC50 (Alternaria alternata): ≥ 20 µg/mL
EC50 (Zymoseptoria tritici): < 20 µg/mL

Source: patent US11440900B2, “Agricultural chemicals” (GLOBACHEM NV, priority 2018, dated 2022)
